According to article PMC5355811 (Nature Communications, 2017):
Read-outs that look alike come from different tables or passages of the source.

Experiments:
Assay type in all cases: cell-based
[1] = tested on: Ba/F3 cells expressing EGFR-del19; assay: CellTiter-Glo cell viability assay, Ba/F3 EGFR-del19; settings: Mus musculus, BaF3, 72 h
Experimental: (§1) Three-day cell viability assays were carried out by plating 2,000, 1,500 and 2,000 cells per well of Ba/F3, PC9 or MGH121, respectively, into black transparent-bottom 96-well plates. On the same day for Ba/F3 cells and the following day for PC9 and MGH121 cells, the cells were treated with each TKI across a 10-dose range from 0.3 nmol l^−1 to 10 μmol l^−1. After 72 h of drug treatment, cell viability was measured using the CellTiter-Glo assay (Promega).

[2] = tested on: Ba/F3 cells expressing EGFR-C797S/T790M/del19; assay: CellTiter-Glo cell viability assay, Ba/F3 EGFR-C797S/T790M/del19; settings: Mus musculus, BaF3, 72 h, 72 h
Experimental: as §1

[3] = tested on: Ba/F3 cells expressing EGFR-L858R; assay: CellTiter-Glo cell viability assay, Ba/F3 EGFR-L858R; settings: Mus musculus, BaF3, 72 h
Experimental: as §1

[4] = tested on: Ba/F3 cells expressing EGFR-T790M/L858R; assay: CellTiter-Glo cell viability assay, Ba/F3 EGFR-T790M/L858R; settings: Mus musculus, BaF3, 72 h
Experimental: as §1

[5] = tested on: Ba/F3 cells of EGFR-del19; assay: Drug sensitivity screening at 100 nM, Ba/F3 EGFR-del19; settings: 72 h, DMSO = 100; for viability at 0.1 µM: Mus musculus, BaF3, 72 h, 100 nM inhibitor, mean of three independent experiments (Fig. 1a data), read-out: Relative cell viability (ratio to DMSO control), del19; for Relative cell viability (% of DMSO control) in del19 Ba/F3 cells: 100 nM
Experimental: (§2) After the incubation, cell viability was measured using CellTiter-Glo assay. The relative cell viability was calculated as a ratio of each value to that of the DMSO control.

[6] = tested on: Ba/F3 cells of EGFR-C797S/T790M/del19; assay: Drug sensitivity screening at 100 nM, Ba/F3 EGFR-C797S/T790M/del19; settings: Mus musculus, BaF3, 72 h, 100 nM inhibitor, 72 h, DMSO = 100; mean of three independent experiments (Fig. 1a data)
Experimental: as §2

[7] = tested on: Ba/F3 cells expressing EGFR-T790M/del19; assay: CellTiter-Glo cell viability assay, Ba/F3 EGFR-T790M/del19; settings: Mus musculus, BaF3, 72 h
Experimental: as §1

[8] = tested on: Ba/F3 cells expressing EGFR-C797S/T790M/L858R; assay: CellTiter-Glo cell viability assay, Ba/F3 EGFR-C797S/T790M/L858R; settings: Mus musculus, BaF3, 72 h
Experimental: as §1

[9] = tested on: Ba/F3 cells of EGFR-T790M/del19; assay: Drug sensitivity screening at 100 nM, Ba/F3 EGFR-T790M/del19; settings: 72 h, DMSO = 100; for Relative cell viability (% of DMSO control): 100 nM; for viability at 0.1 µM: Mus musculus, BaF3, 72 h, 100 nM inhibitor, mean of three independent experiments (Fig. 1a data), read-out: Relative cell viability (ratio to DMSO control), del19/T790M
Experimental: as §2

[10] = Fig. 3c, read-out: IC50, Ba/F3 Del19
[11] = Supplementary Fig. 8e, read-out: IC50, Ba/F3 L858R
[12] = Supplementary Fig. 8e, read-out: IC50, Ba/F3 T790M/L858R

| SMILES | viability at 0.1 µM [5] | viability at 0.1 µM [6] | Relative cell viability (% of DMSO control) in del19 Ba/F3 cells ([5]; experiment 1) | Relative cell viability (% of DMSO control) in del19 Ba/F3 cells ([5]; experiment 2) | Relative cell viability (% of DMSO control) in del19 Ba/F3 cells ([5]; experiment 3) | Relative cell viability (% of DMSO control) ([9]; experiment 1) | Relative cell viability (% of DMSO control) ([9]; experiment 2) | Relative cell viability (% of DMSO control) ([9]; experiment 3) | viability at 0.1 µM [9] | further results |
| --- | --- | --- | --- | --- | --- | --- | --- | --- | --- | --- |
| Cc1cc(Nc2ncc(Cl)c(Nc3ccccc3S(=O)(=O)C(C)C)n2)c(OC(C)C)cc1C1CCNCC1 [Ceritinib, ceritinib] | 96.5% | 135% | – | – | – | – | – | – | – | IC50 [1, 10]: 524 nM; IC50 ([2]; Fig. 3b,c): 780 nM; IC50 [3, 11]: 1160 nM; IC50 [4, 12]: 685 nM |
| COc1cc(N2CCC(N3CCN(C)CC3)CC2)ccc1Nc1ncnc(Nc2ccccc2S(=O)(=O)C(C)C)n1 [ASP3026] | 98.3% | 126% | 92.7195 | 100.941 | 101.38 | 93.2109 | 112.991 | 110.516 | 106% | IC50 [1, 10]: 450 nM; IC50 ([7]; Fig. 3c, read-out: IC50, Ba/F3 T790M/del19): 2160 nM; IC50 ([2]; Fig. 3b,c): 1510 nM; IC50 [3, 11]: 948 nM; IC50 [4, 12]: 1690 nM; IC50 ([8]; Supplementary Fig. 8e): 2150 nM |
| Cc1cc(C(=O)Nc2nc3cccc(Cl)c3n2[C@@H]2CCCCN(C(=O)/C=C/CN(C)C)C2)ccn1 [EGF-816] | – | – | – | – | – | – | – | – | – | IC50 ([1]; Table 1a, read-out: IC50, Ba/F3-EGFR-Del19): 2.9 nM; IC50 ([7]; Table 1a, read-out: IC50, Ba/F3-EGFR-T790M/del19): 18.5 nM; IC50 ([2]; Table 1a, read-out: IC50, Ba/F3-EGFR-C797S/T790M/del19): 1410 nM; IC50 ([3]; Table 1b, read-out: IC50, Ba/F3-EGFR-L858R): 7.7 nM; IC50 ([4]; Table 1b, read-out: IC50, Ba/F3-EGFR-T790M/L858R): 15.5 nM; IC50 ([8]; Table 1b, read-out: IC50, Ba/F3-EGFR-C797S/T790M/L858R): 2280 nM |
| CCc1cc2c(cc1N1CCC(N3CCOCC3)CC1)C(C)(C)c1[nH]c3cc(C#N)ccc3c1C2=O [Alectinib, alectinib] | 106% | 146% | 98.9355 | 105.786 | 113.209 | 98.2015 | 127.038 | 121.189 | 115% | – |
| COc1cc2nccc(Oc3ccc(NC(=O)C4(C(=O)Nc5ccc(F)cc5)CC4)cc3)c2cc1OC [XL184] | 110% | 137% | 97.6803 | 120.752 | 111.655 | 91.4569 | 111.038 | 110.02 | 104% | – |
| CS(=O)(=O)N1CCN(Cc2cc3nc(-c4cccc5[nH]ncc45)nc(N4CCOCC4)c3s2)CC1 [GDC0941] | 40.1% | 66.1% | 34.6965 | 39.6485 | 45.9129 | 45.3105 | 67.5344 | 51.7458 | 54.9% | – |
| COc1cc2c(Nc3ccc(Br)cc3F)ncnc2cc1OCC1CCN(C)CC1 [Vandetanib, vandetanib] | 1.62% | 130% | 1.287 | 1.585 | 1.984 | 95.2444 | 114.653 | 98.1331 | 103% | – |
